# Laboratory results reported in patent US10538532B2, “Hepatitis B antiviral agents” (ENANTA PHARMACEUTICALS, INC., priority 2016, dated 2020).
# Like-named read-outs stand apart in the source and are kept apart here.
# System: HBV
# Experiment: HepAD38 antiviral assay: reduction of viral product accumulation (virion DNA by qPCR, HBsAg or HBeAg by ELISA)
# Assay type: cell-based, hepatitis B virus
# Details: Hepatitis B virus, HePAD38, 120 h, read-out: HepAD38 EC50
# Description: Methods: HepAD38 cells are maintained as previously reported (Ladner et al, Antimicrob. Agents Chemother. 1997, […], 1715). Briefly, cells are passaged upon attaining confluency in DMEM/F12 media in the presence of 10% FBS, Penn/Strep, 250 μg/mL G418, and 1 ug/ml tetracycline. Novel compounds are screened by first washing cells three times with PBS to remove tetracycline, and plating in 96 well plates at 35,000 cells/well. Compounds dissolved in DMSO are then diluted 1:200 into wells containing cells. Five days after compound addition, material is harvested for analysis. For an extended 8 day analysis, cells are plated and treated as described above, but media and compound are refreshed on d2 and d5 post initial treatment.
# On harvest day, virion DNA is obtained by lysing with Sidestep Lysis and Stabilization Buffer and then quantified via quantitative real time PCR. Commercially available ELISA kits are used to quantitate the viral proteins HBsAg (Alpco) or HbeAg (US Biological) by following the manufacturer's recommended protocol after diluting samples to match the linear range of their respective assays. Irrespective of readout, compound concentrations that reduce viral product accumulation in the cell lysates or supernatants by 50% relative to no drug controls (EC50) are reported; EC50 ranges are as follows: A<0.1 μM; B 0.1-0.4 μM; C>0.4 μM.
# [1] = HepAD38 cells, five days after compound addition, concentration reducing viral product accumulation by 50% relative to no drug controls
SMILES,EC50 [1] [nM],EC50 [nM]
CCNC(=O)OC[C@]1(O)CC2CC[C@@H](C1)[C@H]2S(=O)(=O)c1cc(C(=O)Nc2cc(F)c(F)c(F)c2)ccc1Cl [Example 135],100 to 400,
CC(O)[C@]1(O)CC2CC[C@@H](C1)[C@H]2S(=O)(=O)c1cc(C(=O)Nc2cc(F)c(F)c(F)c2)ccc1Cl (some centres unmarked) [Example 136],< 100,
O=C(Nc1cc(F)c(F)c(F)c1)c1ccc(Cl)c(S(=O)(=O)[C@@H]2C3CC[C@H]2C[C@](O)(CO)C3)c1 [Example 137],100 to 400,
O=C(Nc1cc(F)c(F)c(F)c1)c1ccc(Cl)c([S+]([O-])[C@H]2C3CC[C@H]2C[C@](O)(CO)C3)c1 (some centres unmarked) [Example 138],> 400,
O=C(Nc1cc(F)c(F)c(F)c1)c1ccc(Cl)c(S(=O)(=O)[C@H]2C3CC[C@H]2C[C@]2(CO2)C3)c1 [Example 139],< 100,
CC(=O)OCC1=CC2CCC(C1)[C@@H]2S(=O)(=O)c1cc(C(=O)Nc2cc(F)c(F)c(F)c2)ccc1Cl (some centres unmarked) [Example 140],100 to 400,
O=C(Nc1cc(F)c(F)c(F)c1)c1ccc(Cl)c(S(=O)(=O)[C@@H]2C3C=C(CO)CC2CC3)c1 (some centres unmarked) [Example 141],100 to 400,
CS(=O)(=O)OC[C@]1(O)CC2CC[C@@H](C1)[C@H]2S(=O)(=O)c1cc(C(=O)Nc2cc(F)c(F)c(F)c2)ccc1Cl [Example 142],< 100,
CN(C)c1ccc(C(=O)Nc2cc(F)c(F)c(F)c2)cc1S(=O)(=O)[C@H]1C2CC[C@H]1C[C@]1(CO1)C2 [Example 143],> 400,
CN(C)c1ccc(C(=O)Nc2cc(F)c(F)c(F)c2)cc1S(=O)(=O)[C@H]1C2CC[C@H]1C[C@](O)(COS(C)(=O)=O)C2 [Example 144],> 400,
[N-]=[N+]=Nc1ccc(C(=O)Nc2cc(F)c(F)c(F)c2)cc1S(=O)(=O)[C@H]1C2CC[C@H]1C[C@]1(CO1)C2 [Example 145],100 to 400,
O=C(Nc1cc(F)c(F)c(F)c1)c1ccc(Cl)c(S(=O)(=O)[C@H]2C3CC[C@H]2C(O)C(=O)C3)c1 (some centres unmarked) [Example 146],< 100,
CN(C)c1ccc(C(=O)Nc2cc(F)c(F)c(F)c2)cc1S(=O)(=O)[C@H]1C2CC[C@H]1C[C@](O)(CO)C2 [Example 147],> 400,
[N-]=[N+]=Nc1ccc(C(=O)Nc2cc(F)c(F)c(F)c2)cc1S(=O)(=O)[C@H]1C2CC[C@H]1C[C@](O)(CO)C2 [Example 148],> 400,
O=C(Nc1cc(F)c(F)c(F)c1)c1ccc(Cl)c(S(=O)(=O)[C@H]2C3CC[C@H]2C[C@](O)(C(O)c2ccccc2)C3)c1 (some centres unmarked) [Example 149],< 100,
CC(C)(O)[C@]1(O)CC2CC[C@@H](C1)[C@H]2S(=O)(=O)c1cc(C(=O)Nc2cc(F)c(F)c(F)c2)ccc1Cl [Example 151],< 100,
CO[C@]1(CO)CC2CC[C@@H](C1)[C@H]2S(=O)(=O)c1cc(C(=O)Nc2cc(F)c(F)c(F)c2)ccc1Cl [Example 152],< 100,
COC(=O)[C@]1(O)CC2CC[C@@H](C1)[C@H]2S(=O)(=O)c1cc(C(=O)Nc2cc(F)c(F)c(F)c2)ccc1Cl [Example 153],> 400,
O=C1OC[C@@]2(CC3CC[C@@H](C2)[C@H]3S(=O)(=O)c2cc(C(=O)Nc3cc(F)c(F)c(F)c3)ccc2Cl)O1 [Example 155],< 100,

SMILES,EC50 [1] [nM],EC50 [nM]
O=C(Nc1cc(F)c(F)c(F)c1)c1ccc(Cl)c(S(=O)(=O)[C@H]2C3CC[C@H]2C(O)[C@](O)(CO)C3)c1 (some centres unmarked) [Example 156],< 100,
O=C(Nc1cc(F)c(F)c(F)c1)c1ccc(Cl)c(S(=O)(=O)[C@H]2C3CC[C@H]2C[C@](O)(/C=N/Oc2ccccc2)C3)c1 [Example 157],< 100,
O=C(Nc1cc(F)c(F)c(F)c1)c1ccc(Cl)c(S(=O)(=O)[C@H]2C3CC[C@H]2C[C@](O)(/C=N/O)C3)c1 [Example 158],< 100,
[2H]C1([2H])C2C[C@@](O)(CO)C[C@H](C1([2H])[2H])[C@@]2([2H])S(=O)(=O)c1cc(C(=O)Nc2cc(F)c(F)c(F)c2)ccc1Cl [Example 159],< 100,
C[Si](C)(C)C#C[C@@]1(O)CC2CC[C@@H](C1)[C@H]2S(=O)(=O)c1cc(C(=O)Nc2cc(F)c(F)c(F)c2)ccc1Cl [Example 160],,100 to 400
C#C[C@@]1(O)CC2CC[C@@H](C1)[C@H]2S(=O)(=O)c1cc(C(=O)Nc2cc(F)c(F)c(F)c2)ccc1Cl [Example 161],< 100,
C#C[C@]1(O)CC2CC[C@@H](C1)[C@H]2S(=O)(=O)c1cc(C(=O)Nc2cc(F)c(F)c(F)c2)ccc1Cl [Example 162],< 100,
O=C(Nc1cc(F)c(F)c(F)c1)c1ccc(Cl)c(S(=O)(=O)[C@H]2C3CC[C@H]2[C@@H](CO)C(=O)C3)c1 [Example 163],100 to 400,
O=C(Nc1cc(F)c(F)c(F)c1)c1ccc(Cl)c(S(=O)(=O)[C@H]2C3CC[C@H]2C[C@@](O)(CO)C3)c1 [Example 164],< 100,
O=C(Nc1cc(F)c(F)c(F)c1)c1ccc(Cl)c(S(=O)(=O)CCCCO[C@H]2C3CC[C@H]2C[C@](O)(CO)C3)c1 [Example 165],> 400,
O=C(Nc1cc(F)c(F)c(F)c1)c1ccc(Cl)c(S(=O)(=O)C(CO)CC2CCOCC2)c1 (centres unmarked) [Example 166],100 to 400,
O=C(Nc1cc(F)c(F)c(F)c1)c1ccc(Cl)c(S(=O)(=O)[C@H]2C3CC[C@H]2C[C@](O)(C#Cc2ccccc2)C3)c1 [Example 167],100 to 400,
O=C(Nc1cc(F)c(F)c(F)c1)c1ccc(Cl)c(S(=O)(=O)[C@H]2C3CC[C@H]2C[C@@](O)(C#Cc2ccccc2)C3)c1 [Example 168],> 400,
O=C(Nc1cc(F)c(F)c(F)c1)c1ccc(Cl)c(S(=O)(=O)[C@H]2C3CC[C@H]2C[C@](O)(C#Cc2ccncc2)C3)c1 [Example 169],< 100,
O=C(Nc1cc(F)c(F)c(F)c1)c1ccc(Cl)c(S(=O)(=O)[C@H]2C3CC[C@H]2C[C@@](O)(C#Cc2ccncc2)C3)c1 [Example 170],> 400,
O=C(Nc1cc(F)c(F)c(F)c1)c1ccc(Cl)c(S(=O)(=O)[C@H]2C3CC[C@H]2C[C@](O)(C#Cc2ccccn2)C3)c1 [Example 171],< 100,
O=C(Nc1cc(F)c(F)c(F)c1)c1ccc(Cl)c(S(=O)(=O)[C@H]2C3CC[C@H]2C[C@@](O)(C#Cc2ccccn2)C3)c1 [Example 172],100 to 400,
C=CC[C@]1(O)CC2CCC(C1)[C@@H]2S(=O)(=O)c1cc(C(=O)Nc2cc(F)c(F)c(F)c2)ccc1Cl [Example 173],< 100,
O=C(Nc1cc(F)c(F)c(F)c1)c1ccc(Cl)c(S[C@H]2C3CC4C[C@H](C3)C[C@@H]2C4)c1 [Example 174],> 400,

SMILES,EC50 [1] [nM],EC50 [nM]
O=C(Nc1cc(F)c(F)c(F)c1)c1ccc(Cl)c([S+]([O-])[C@H]2C3C[C@@H]4C[C@H](C3)C[C@@H]2C4)c1 (some centres unmarked) [Example 175],> 400,
O=C(Nc1cc(F)c(F)c(F)c1)c1ccc(Cl)c(S(=O)(=O)[C@H]2C3C[C@@H]4C[C@H](C3)C[C@@H]2C4)c1 [Example 176],> 400,
O=C(Nc1cc(F)c(F)c(F)c1)c1ccc(Cl)c(S(=O)(=O)C[C@H]2C3CC[C@H]2C[C@](O)(CO)C3)c1 [Example 177],< 100,
O=C(Nc1cc(F)c(F)c(F)c1)c1ccc(Cl)c(S(=O)(=O)C[C@@H]2C3CC[C@H]2C[C@](O)(CO)C3)c1 [Example 178],< 100,
O=C1CC2CC[C@@H](C1)[C@@H]2CS(=O)(=O)c1cc(C(=O)Nc2cc(F)c(F)c(F)c2)ccc1Cl [Example 179],< 100,
O=C1CC2CC[C@@H](C1)[C@H]2CS(=O)(=O)c1cc(C(=O)Nc2cc(F)c(F)c(F)c2)ccc1Cl [Example 180],< 100,
O=C(Nc1cc(F)c(F)c(F)c1)c1ccc(Cl)c(S(=O)(=O)C[C@@H]2C3CC[C@H]2C[C@@H](O)C3)c1 [Example 181],< 100,
O=C(Nc1cc(F)c(F)c(F)c1)c1ccc(Cl)c(S(=O)(=O)[C@H]2CC3CCC(C2)[C@H]3O)c1 [Example 183],100 to 400,
O=C(Nc1cc(F)c(F)c(F)c1)c1ccc(Cl)c(S(=O)(=O)[C@H]2CC3CCC(C2)[C@H]3OC2CCCO2)c1 (some centres unmarked) [Example 184],> 400,
CC(=O)OC[C@]1(OC(C)=O)CC2CC[C@@H](C1)[C@H]2S(=O)(=O)c1cc(C(=O)Nc2cc(F)c(F)c(F)c2)ccc1Cl [Example 185],< 100,
CS(=O)(=O)NC[C@@]1(O)CC2CC[C@@H](C1)[C@H]2S(=O)(=O)c1cc(C(=O)Nc2cc(F)c(F)c(F)c2)ccc1Cl [Example 186],100 to 400,
O=C(Nc1cc(F)c(F)c(F)c1)c1ccc(Cl)c(S(=O)(=O)[C@H]2C3CC[C@H]2C[C@](O)(COCc2cccnc2)C3)c1 [Example 187],< 100,
CC(C)(C)[Si](C)(C)O[C@H]1C2CCC1C[C@@H](Sc1cc(C(=O)Nc3cc(F)c(F)c(F)c3)ccc1Cl)C2 [Example 189],,100 to 400
O=C(Nc1cc(F)c(F)c(F)c1)c1ccc(Cl)c(S[C@H]2CC3CCC(C2)[C@@H]3O)c1 [Example 190],> 400,
O=C(Nc1cc(F)c(F)c(F)c1)c1ccc(Cl)c(S[C@H]2CC3CCC(C2)[C@H]3O)c1 [Example 191],> 400,
O=C(Nc1cc(F)c(F)c(F)c1)c1ccc(Cl)c(S(=O)(=O)[C@H]2CC3CCC(C2)[C@@H]3O)c1 [Example 192],100 to 400,
O=C(Nc1cc(F)c(F)c(F)c1)c1ccc(Cl)c(S(=O)(=O)C[C@@H]2C3CC[C@H]2C[C@H](O)C3)c1 [Example 193],100 to 400,
O=C(Nc1cc(F)c(F)c(F)c1)c1ccc(Cl)c(S(=O)(=O)C[C@H]2C3CCC2C[C@H](O)C3)c1 [Example 194],< 100,
